Laboratory results taken from patent US9545105B2, “1-(heterocyclic carbonyl) piperidines” (BAYER INTELLECTUAL PROPERTY GMBH, priority 2010, dated 2017).

Legend:
[1] = log P by HPLC on reversed-phase column (C 18), EEC Directive 79/831 Annex V.A8; assay type: physicochemical; conditions: HPLC on reversed-phase column (C 18); 40° C.; 0.1% aqueous formic acid and acetonitrile; linear gradient 10% to 90% acetonitrile
Description: In table 1, the log P values were determined in accordance with EEC Directive 79/831 Annex V.A8 by HPLC (High Performance Liquid Chromatography) on a reversed-phase column (C 18), using the method described below: Temperature: 40° C.; Mobile phases: 0.1% aqueous formic acid and acetonitrile; linear gradient from 10% acetonitrile to 90% acetonitrile. Calibration was carried out using unbranched alkan-2-ones (comprising 3 to 16 carbon atoms) with known log P values (determination of the log P values by the retention times using linear interpolation between two successive alkanones). lambda-max-values were determined using UV-spectra from 200 nm to 400 nm and the peak values of the chromatographic signals.

Alternaria solani = test: In vivo preventive test on Alternaria solani (tomato); conditions: 500 ppm of active ingredient, evaluated 7 days after inoculation
Description: Solvent: 49 parts by weight of N,N-dimethylformamide Emulsifier: 1 part by weight of Alkylarylpolyglycolether To produce a suitable preparation of active compound, 1 part by weight of active compound is mixed with the stated amounts of solvent and emulsifier, and the concentrate is diluted with water to the desired concentration. To test for preventive activity, young plants are sprayed with the preparation of active compound at the stated rate of application. One day after this treatment, the plants are inoculated with an aqueous spore suspension of Alternaria solani. The plants remain for one day in an incubation cabinet at approximately 22° C. and a relative atmospheric humidity of 100%. Then the plants are placed in an incubation cabinet at approximately 20° C. and a relative atmospheric humidity of 96%. The test is evaluated 7 days after the inoculation. 0% means an efficacy which corresponds to that of the untreated control while an efficacy of 100% means that no disease is observed.

Pyrenophora teres = test: In vivo preventive test on Pyrenophora teres (barley); conditions: 500 ppm of active ingredient, evaluated 7-9 days after inoculation
Description: Solvent: 49 parts by weight of N,N-dimethylformamide Emulsifier: 1 part by weight of alkylaryl polyglycol ether To produce a suitable preparation of active compound, 1 part by weight of active compound is mixed with the stated amounts of solvent and emulsifier, and the concentrate is diluted with water to the desired concentration. To test for preventive activity, young plants are sprayed with the preparation of active compound at the stated rate of application. One day after this treatment, the plants are inoculated with an aqueous spore suspension of Pyrenophora teres. The plants remain for 48 hours in an incubation cabinet at 22° C. and a relative atmospheric humidity of 100%. Then the plants are placed in a greenhouse at a temperature of approximately 20° C. and a relative atmospheric humidity of approximately 80%. The test is evaluated 7-9 days after the inoculation. 0% means an efficacy which corresponds to that of the untreated control while an efficacy of 100% means that no disease is observed.

SMILES | logP [1] | Efficacy (Alternaria solani) | Efficacy (Pyrenophora teres)
Cc1ccccc1C1CCCCN1C(=O)c1c(C(F)F)nn(C)c1Cl (stereo not drawn) [Example 5] | 3.37 | 90% | 95%
Cc1ccc(C2CCCCN2C(=O)c2c(C(F)F)nn(C)c2Cl)cc1C (stereo not drawn) [Example 8] | 3.87 | 94% | 90%
Cc1cc(C)cc(C2CCCCN2C(=O)c2c(C(F)(F)F)cn(C)c2F)c1 (stereo not drawn) [Example 34] | 4.27 | 90% | 100%
Cn1nc(C(F)F)c(C(=O)N2CCCCC2c2ccccc2Cl)c1Cl (stereo not drawn) [Example 40] | 3.48 | 95% | 95%
Cn1nc(C(F)F)c(C(=O)N2CCCCC2c2cccc(Cl)c2)c1Cl (stereo not drawn) [Example 47] | 3.60 | 100% | 100%
Cn1nc(C(F)F)c(C(=O)N2CCCCC2c2ccc(Cl)cc2)c1Cl (stereo not drawn) [Example 55] | 3.67 | 95% | 80%
Cc1cc(C(=O)N2CCCCC2c2ccc3c(c2)OCO3)c(C)o1 (stereo not drawn) [Example 58] | 3.33 | 78% | 
CCc1nn(C)c(F)c1C(=O)N1CCCCC1c1ccc2c(c1)OCO2 (stereo not drawn) [Example 59] | 2.73 | 78% | 70%
Cc1nn(C)c(F)c1C(=O)N1CCCCC1c1ccc2c(c1)OCO2 (stereo not drawn) [Example 60] | 2.44 | 94% | 80%
Cn1nc(C(F)F)c(C(=O)N2CCCCC2c2ccc3c(c2)OCCO3)c1F (stereo not drawn) [Example 65] | 2.75 | 90% | 100%
Cc1cc(C(=O)N2CCCCC2c2cccc(Cl)c2Cl)c(C)o1 (stereo not drawn) [Example 71] | 4.29 | 80% | 80%
CCc1nn(C)c(F)c1C(=O)N1CCCCC1c1cccc(Cl)c1Cl (stereo not drawn) [Example 72] | 3.62 | 95% | 95%
Cn1nc(C(F)F)c(C(=O)N2CCCCC2c2ccc(Cl)cc2Cl)c1Cl (stereo not drawn) [Example 80] | 4.06 | 100% | 95%
Cn1nc(C(F)F)c(C(=O)N2CCCCC2c2ccccc2Br)c1Cl (stereo not drawn) [Example 90] | 3.55 | 90% | 95%
Cc1cc(C(=O)N2CCCCC2c2cccc(Br)c2)c(C)o1 (stereo not drawn) [Example 93] | 4.11 | 90% | 95%
CCc1nn(C)c(F)c1C(=O)N1CCCCC1c1cccc(Br)c1 (stereo not drawn) [Example 94] | 3.44 | 100% | 70%
Cn1nc(C(F)F)c(C(=O)N2CCCCC2c2cccc(Br)c2)c1Cl (stereo not drawn) [Example 96] | 3.71 | 100% | 100%
Cc1nn(C)c(F)c1C(=O)N1CCCCC1c1ccc(Br)cc1 (stereo not drawn) [Example 99] | 3.11 | 90% | 100%
Cn1nc(C(F)F)c(C(=O)N2CCCCC2c2ccc(Br)cc2)c1Cl (stereo not drawn) [Example 103] | 3.78 | 80% | 95%
Cn1nc(C(F)F)c(C(=O)N2CCCCC2c2ccc(Br)cc2)c1F (stereo not drawn) [Example 104] | 3.60 | 100% | 95%
Cn1nc(C(F)F)c(C(=S)N2CCCCC2c2ccc(Br)cc2)c1F (stereo not drawn) [Example 105] | 4.29 | 100% | 100%
CCc1noc(C)c1C(=O)N1CCCCC1c1cccc(Oc2ccccc2)c1 (stereo not drawn) [Example 110] | 4.16 | 78% | 
CCc1nn(C)c(F)c1C(=O)N1CCCCC1c1cccc(Oc2ccccc2)c1 (stereo not drawn) [Example 112] | 3.96 | 94% | 
Cc1nn(C)c(F)c1C(=O)N1CCCCC1c1cccc(Oc2ccccc2)c1 (stereo not drawn) [Example 113] | 3.60 | 94% | 90%
Cn1nc(C(F)F)c(C(=O)N2CCCCC2c2cccc(Oc3ccccc3)c2)c1Cl (stereo not drawn) [Example 114] | 4.18 | 90% | 80%
Cc1cc(C(=O)N2CCCCC2c2cccc(I)c2)c(C)o1 (stereo not drawn) [Example 116] | 4.36 | 78% | 

SMILES | logP [1] | Efficacy (Alternaria solani) | Efficacy (Pyrenophora teres)
Cc1cc(C(=O)N2CCCCC2c2ccc3ccccc3c2)c(C)o1 (stereo not drawn) [Example 120] | 4.39 | 80% | 70%
Cn1nc(C(F)F)c(C(=O)N2CCCCC2c2ccc3ccccc3c2)c1Cl (stereo not drawn) [Example 121] | 3.87 | 80% | 90%
Cc1nn(C)c(F)c1C(=O)N1CCCCC1c1ccc(Br)s1 (stereo not drawn) [Example 124] | 3.13 | 95% | 100%
CCc1nn(C)c(F)c1C(=O)N1CCCCC1c1ccc(Br)s1 (stereo not drawn) [Example 125] | 3.51 | 90% | 80%
Cc1nn(C)c(F)c1C(=O)N1CCCCC1Cc1ccccc1 (stereo not drawn) [Example 129] | 2.54 | 95% | 100%
Cc1cc(C(=O)N2CCCCC2Cc2ccccc2)c(C)o1 (stereo not drawn) [Example 132] | 3.58 | 90% | 90%
Cn1nc(C(F)F)c(C(=O)N2CCCCC2Cc2ccccc2)c1F (stereo not drawn) [Example 134] | 3.09 | 100% | 100%
CCC(c1ccccc1)C1CCCCN1C(=O)c1c(C(F)F)nn(C)c1Cl (stereo not drawn) [Example 135] | 3.87 | 95% | 94%
CC(c1ccccc1)C1CCCCN1C(=O)c1c(C(F)F)nn(C)c1Cl (stereo not drawn) [Example 137] | 3.59 | 100% | 100%
Cc1cc(C(=O)N2CCCCC2Cc2ccccc2C)c(C)o1 (stereo not drawn) [Example 141] | 3.87 | 90% | 
Cc1nc(C(F)F)c(C(=O)N2CCCCC2Cc2ccccc2C)s1 (stereo not drawn) [Example 142] | 3.50 | 94% | 95%
Cc1cccc(CC2CCCCN2C(=O)c2cc(C)oc2C)c1 (stereo not drawn) [Example 143] | 3.96 | 80% | 
Cc1cccc(CC2CCCCN2C(=O)c2c(C(F)F)nn(C)c2F)c1 (stereo not drawn) [Example 144] | 3.44 | 100% | 100%
Cc1cccc(CC2CCCCN2C(=O)c2sc(C)nc2C(F)F)c1 (stereo not drawn) [Example 145] | 3.57 | 75% | 80%
Cc1ccc(CC2CCCCN2C(=O)c2cc(C)oc2C)cc1 (stereo not drawn) [Example 146] | 3.99 | 95% | 
Cc1ccc(CC2CCCCN2C(=O)c2c(C(F)F)nn(C)c2F)cc1 (stereo not drawn) [Example 147] | 3.46 | 100% | 100%
Cc1ccc(CC2CCCCN2C(=O)c2sc(C)nc2C(F)F)cc1 (stereo not drawn) [Example 148] | 3.59 | 94% | 95%
Cc1ccc(OCC2CCCCN2C(=O)c2c(C(F)F)nn(C)c2Cl)cc1 (stereo not drawn) [Example 149] | 3.55 | 95% | 95%
Cc1ccc(OCC2CCCCN2C(=O)c2c(C(F)F)nn(C)c2F)cc1 (stereo not drawn) [Example 150] | 3.35 | 100% | 100%
Cc1nc(C(F)F)c(C(=O)N2CCCCC2Cc2cccc(F)c2)s1 (stereo not drawn) [Example 151] | 3.19 | 95% | 
Cn1nc(C(F)F)c(C(=O)N2CCCCC2Cc2cccc(F)c2)c1F (stereo not drawn) [Example 153] | 3.13 | 100% | 100%
Cc1nc(C(F)F)c(C(=O)N2CCCCC2Cc2ccc(F)cc2)s1 (stereo not drawn) [Example 154] | 3.21 | 89% | 100%
Cc1cc(C(=O)N2CCCCC2Cc2ccc(F)cc2)c(C)o1 (stereo not drawn) [Example 155] | 3.57 | 78% | 
COc1ccccc1CC1CCCCN1C(=O)c1c(C(F)F)nn(C)c1F (stereo not drawn) [Example 157] | 3.17 | 100% | 100%
COc1ccccc1CC1CCCCN1C(=S)c1c(C(F)F)nn(C)c1F (stereo not drawn) [Example 160] | 3.87 | 90% | 100%
